Assay results as given in article PMC7281072 (Cancers, 2020).

Experiments:
pAKT = assay: Western immunoblotting densitometry, pAKT, SKOV-3 cells; assay type: cell-based, human; conditions: 25 μM; for ratio [pAKT]/[GAPDH] band intensity: SKOV-3 cells; for ratio [pAKT]/[GAPDH] band intensity, single blot (panel A): panel A lower set, cell line not given, control ratio 0.996
SK-OV-3 cancer cell line [1] = assay: cells; conditions: Homo sapiens, SK-OV-3, 48 h
[2] = system: OVCAR-5 human ovarian adenocarcinoma xenograft; set-up: species or system CB17 SCID mice; conditions: mouse, in vivo
ERK1,2 phosphorylation [3] = assay: ERK1/2 phosphorylation ELISA, OVCAR-3 cells; assay type: cell-based, human; conditions: for Vmax ± SE, pERK 1/2 inhibition: Michaelis Menten model; for IC50: Homo sapiens, read-out: IC50, pERK 1/2 inhibition
[4] = system: UWB1.289+BRCA1 cancer cell line; assay: cells; conditions: Homo sapiens, 48 h
AKT1,2 phosphorylation [5] = assay: AKT phosphorylation ELISA, OVCAR-3 cells; assay type: cell-based, human; conditions: for Vmax ± SE, pAKT 1/2 inhibition: Michaelis Menten model; for IC50: Homo sapiens, read-out: IC50, pAKT 1/2 inhibition
CB17 SCID mice = conditions: both, mouse, in vivo, ip
ERK1,2 phosphorylation [6] = assay: ERK1/2 phosphorylation ELISA, UWB1.289 cells; assay type: cell-based, human; conditions: for Vmax ± SE, pERK 1/2 inhibition: Michaelis Menten model; for IC50: Homo sapiens, read-out: IC50, pERK 1/2 inhibition
AKT1,2 phosphorylation [7] = assay: AKT phosphorylation ELISA, OVCAR-5 cells; assay type: cell-based, human; conditions: for Vmax ± SE, pAKT 1/2 inhibition: Michaelis Menten model; for IC50: Homo sapiens, read-out: IC50, pAKT 1/2 inhibition
SK-OV-3 cancer cell line [8] = system: SK-OV-3 cancer cell line
AKT1,2 phosphorylation [9] = assay: AKT phosphorylation ELISA, SK-OV-3 cells; assay type: cell-based, human; conditions: for Vmax ± SE, pAKT 1/2 inhibition: Michaelis Menten model; for IC50: Homo sapiens, read-out: IC50, pAKT 1/2 inhibition
[10] = system: UWB1.289 cancer cell line; assay: cells; conditions: Homo sapiens, UWB1289, 48 h
[11] = system: SKOV-3 human ovarian adenocarcinoma xenograft; set-up: species or system CB17 SCID mice; conditions: mouse, in vivo
[12] = read-out: GI50 (50% Growth Inhibition)
[13] = read-out: IC50 (cytotoxic effect)

## C[C@]12CC[C@@H]3c4ccc(OC(=O)CCOc5ccc(N(CCCl)CCCl)cc5)cc4CC[C@H]3[C@@H]1CCC(=O)N2 [ENGA-L08E, 12a-methyl-2-oxo-1,2,3,4,4a,4b,5,6,10b,11,12,12a-dodecahydronaphtho[2,1-f]quinolin-8-yl 3-(4-(bis (2-chloroethyl)amino)phenoxy) propanoate]
pAKT; 15min, control ratio 0.98
  ratio [pAKT]/[GAPDH] band intensity: 1.04
pAKT; 30min, control ratio 0.98
  ratio [pAKT]/[GAPDH] band intensity: 0.66
pAKT; 1h, control ratio 1.02
  ratio [pAKT]/[GAPDH] band intensity: 0.63
pAKT; 3h, control ratio 0.99
  ratio [pAKT]/[GAPDH] band intensity: 0.52
pAKT; 12h, control ratio 0.94
  ratio [pAKT]/[GAPDH] band intensity: 0.50
pAKT; 1h
  ratio [pAKT]/[GAPDH] band intensity, single blot (panel A): 0.22
pAKT; 3h
  ratio [pAKT]/[GAPDH] band intensity, single blot (panel A): 0.20
SK-OV-3 cancer cell line [1]; [12]
  GI50: 10 ± 0.5 µM
SK-OV-3 cancer cell line [1]; [13]
  IC50: > 100 µM
[2]
  Median Overall Survival (OS): 127 days
  Progression Free Survival (PFS): 34 days
  Response Rate (RR): 100%
[2]; ip
  Cures (mice alive for 120 days after tumor inoculation): 3/5
  MST (mean survival time): 94.8 ± 6.3 p < 0.01 Days
  T/C% (mean survival time of treated versus saline controls): 187.8%
  TI% (Tumor Inhibition): 131.0%
  size of the primary tumor: 113 ± 14 mm^3
ERK1,2 phosphorylation [3]; 15 min
  Vmax ± SE, pERK 1/2 inhibition: 56.77 ± 0.49
ERK1,2 phosphorylation [3]; 30 min
  Vmax ± SE, pERK 1/2 inhibition: 61.29 ± 1.88
ERK1,2 phosphorylation [3]; 60 min
  Vmax ± SE, pERK 1/2 inhibition: 63.79 ± 1.33
ERK1,2 phosphorylation [3]; 0.25 h, 15 min
  IC50: 48.9 µM
ERK1,2 phosphorylation [3]; 0.5 h, 30 min
  IC50: 17.8 µM
ERK1,2 phosphorylation [3]; 1 h, 60 min
  IC50: 9.51 µM
[4]; [12]
  GI50: 18 ± 1 µM
[4]; [13]
  IC50: 88 ± 8.1 µM
AKT1,2 phosphorylation [5]; 15 min
  Vmax ± SE, pAKT 1/2 inhibition: 65.97 ± 1.60
AKT1,2 phosphorylation [5]; 30 min
  Vmax ± SE, pAKT 1/2 inhibition: 75.64 ± 0.99
AKT1,2 phosphorylation [5]; 60 min
  Vmax ± SE, pAKT 1/2 inhibition: 78.39 ± 4.18
AKT1,2 phosphorylation [5]; 0.25 h, 15 min
  IC50: > 50 µM
AKT1,2 phosphorylation [5]; 0.5 h, 30 min
  IC50: 12.8 µM
AKT1,2 phosphorylation [5]; 1 h, 60 min
  IC50: 14.2 µM
CB17 SCID mice
  LD10: 75 mg/kg
ERK1,2 phosphorylation [6]; 15 min
  Vmax ± SE, pERK 1/2 inhibition: 73.97 ± 1.64
ERK1,2 phosphorylation [6]; 60 min
  Vmax ± SE, pERK 1/2 inhibition: 88.83 ± 2.13
ERK1,2 phosphorylation [6]; UWB1289, 0.25 h, 15 min
  IC50: 7.02 µM
ERK1,2 phosphorylation [6]; UWB1289, 0.5 h, 30 min
  IC50: 4.25 µM
ERK1,2 phosphorylation [6]; UWB1289, 1 h, 60 min
  IC50: 3.67 µM
AKT1,2 phosphorylation [7]; 15 min
  Vmax ± SE, pAKT 1/2 inhibition: 60.45 ± 3.65
AKT1,2 phosphorylation [7]; 30 min
  Vmax ± SE, pAKT 1/2 inhibition: 61.17 ± 0.62
AKT1,2 phosphorylation [7]; 60 min
  Vmax ± SE, pAKT 1/2 inhibition: 61.47 ± 2.03
AKT1,2 phosphorylation [7]; 0.25 h, 15 min
  IC50: > 50 µM
AKT1,2 phosphorylation [7]; 0.5 h, 30 min
  IC50: 34.2 µM
AKT1,2 phosphorylation [7]; 1 h, 60 min
  IC50: 28.3 µM
SK-OV-3 cancer cell line [8]
  TGI (Total Growth Inhibition): 76 ± 7.2 μΜ
AKT1,2 phosphorylation [9]; 15 min
  Vmax ± SE, pAKT 1/2 inhibition: 79.22 ± 0.89
AKT1,2 phosphorylation [9]; 30 min
  Vmax ± SE, pAKT 1/2 inhibition: 81.78 ± 2.53
AKT1,2 phosphorylation [9]; 60 min
  Vmax ± SE, pAKT 1/2 inhibition: 82.20 ± 1.68
AKT1,2 phosphorylation [9]; 0.25 h, 15 min
  IC50: 29.6 µM
AKT1,2 phosphorylation [9]; 0.5 h, 30 min
  IC50: 24.9 µM
AKT1,2 phosphorylation [9]; 1 h, 60 min
  IC50: 21.8 µM
OVCAR-3 cancer cell line
  TGI (Total Growth Inhibition): 40 ± 2.7 μΜ
[10]; [12]
  GI50: 8 ± 0.9 µM
[10]; [13]
  IC50: 45 ± 3.3 µM
[11]
  Median Overall Survival (OS): 105 days
